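Briefly, cells in 96-well plates were exposed to five compound concentrations for 48 h, and endpoints were estimated by linear interpolation. Definition used: TGI = concentration required for complete inhibition of growth.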
Experiments:
Experiment in all cases: NCI-60 cell line screen, 48 h
OVCAR-8 ovarian = tested on: OVCAR-8 ovarian
MDA-N = tested on: MDA-N
OVCAR-5 ovarian = tested on: OVCAR-5 ovarian
NCI-H460 lung = tested on: NCI-H460 lung
RPMI-8226 leukemia = tested on: RPMI-8226 leukemia
HCT-116 colon = tested on: HCT-116 colon
HS 578T breast = tested on: HS 578T breast
HCT-15 colon = tested on: HCT-15 colon
SN12C renal = tested on: SN12C renal
SF-268 CNS = tested on: SF-268 CNS
HT29 colon = tested on: HT29 colon
MDA-MB-231 breast = tested on: MDA-MB-231 breast
CCRF-CEM leukemia = tested on: CCRF-CEM leukemia
NCI-H226 lung = tested on: NCI-H226 lung
UACC-257 melanoma = tested on: UACC-257 melanoma
SK-MEL-5 melanoma = tested on: SK-MEL-5 melanoma
SK-MEL-28 melanoma = tested on: SK-MEL-28 melanoma
BT-549 breast = tested on: BT-549 breast
RXF 393 renal = tested on: RXF 393 renal
K-562 leukemia = tested on: K-562 leukemia
U251 CNS = tested on: U251 CNS
SK-MEL-2 melanoma = tested on: SK-MEL-2 melanoma
MOLT-4 leukemia = tested on: MOLT-4 leukemia
ACHN renal = tested on: ACHN renal
OVCAR-3 ovarian = tested on: OVCAR-3 ovarian
SW-620 colon = tested on: SW-620 colon
TK-10 renal = tested on: TK-10 renal
SNB-19 CNS = tested on: SNB-19 CNS
HOP-62 NSCLC = tested on: HOP-62 NSCLC
HL-60(TB) leukemia = tested on: HL-60(TB) leukemia
COLO 205 colon = tested on: COLO 205 colon
M14 melanoma = tested on: M14 melanoma
UO-31 renal = tested on: UO-31 renal
DU-145 prostate = tested on: DU-145 prostate
IGROV1 ovarian = tested on: IGROV1 ovarian
NCI-H23 lung = tested on: NCI-H23 lung
KM12 colon = tested on: KM12 colon
SNB-75 CNS = tested on: SNB-75 CNS
SF-295 CNS = tested on: SF-295 CNS
A549 NSCLC = tested on: A549 NSCLC
HCC-2998 colon = tested on: HCC-2998 colon
MDA-MB-435 = tested on: MDA-MB-435
MCF7 breast = tested on: MCF7 breast
PC-3 prostate = tested on: PC-3 prostate
SK-OV-3 ovarian = tested on: SK-OV-3 ovarian
EKVX NSCLC = tested on: EKVX NSCLC
OVCAR-4 ovarian = tested on: OVCAR-4 ovarian
786-0 renal = tested on: 786-0 renal
T-47D breast = tested on: T-47D breast
MALME-3M melanoma = tested on: MALME-3M melanoma
NCI/ADR-RES ovarian = tested on: NCI/ADR-RES ovarian
CAKI-1 renal = tested on: CAKI-1 renal
UACC-62 melanoma = tested on: UACC-62 melanoma
NCI-H522 lung = tested on: NCI-H522 lung
SF-539 CNS = tested on: SF-539 CNS
A498 renal = tested on: A498 renal
LOX IMVI melanoma = tested on: LOX IMVI melanoma

`O=S(=O)(c1ccc(Cl)cc1)c1ccccc1C1=NCCN1` gave a TGI (OVCAR-8 ovarian) of over 100 µM, a TGI (MDA-N) of over 100 µM and a TGI (OVCAR-5 ovarian) of over 100 µM. It also gave a TGI (NCI-H460 lung) of over 100 µM, a TGI (RPMI-8226 leukemia) of over 100 µM and a TGI (HCT-116 colon) of over 100 µM. For the same molecule, the TGI (HS 578T breast) was over 100 µM, the TGI (HCT-15 colon) was over 100 µM and the TGI (SN12C renal) was over 100 µM. The TGI (SF-268 CNS) was over 100 µM, the TGI (HT29 colon) was over 100 µM and the TGI (MDA-MB-231 breast) was over 100 µM. For the same molecule, the TGI (CCRF-CEM leukemia) was over 100 µM, the TGI (NCI-H226 lung) was over 100 µM and the TGI (UACC-257 melanoma) was over 100 µM. The TGI (SK-MEL-5 melanoma) was over 100 µM, the TGI (SK-MEL-28 melanoma) was over 100 µM and the TGI (BT-549 breast) was over 100 µM. It also gave a TGI (RXF 393 renal) of over 100 µM, a TGI (K-562 leukemia) of over 100 µM and a TGI (U251 CNS) of over 100 µM. For the same molecule, the TGI (SK-MEL-2 melanoma) was over 100 µM, the TGI (MOLT-4 leukemia) was over 100 µM and the TGI (ACHN renal) was over 100 µM. It also gave a TGI (OVCAR-3 ovarian) of over 100 µM, a TGI (SW-620 colon) of over 100 µM and a TGI (TK-10 renal) of over 100 µM. For the same molecule, the TGI (SNB-19 CNS) was over 100 µM, the TGI (HOP-62 NSCLC) was over 100 µM and the TGI (HL-60(TB) leukemia) was over 100 µM. It also gave a TGI (COLO 205 colon) of over 100 µM, a TGI (M14 melanoma) of over 100 µM and a TGI (UO-31 renal) of over 100 µM. The TGI (DU-145 prostate) was over 100 µM, the TGI (IGROV1 ovarian) was over 100 µM and the TGI (NCI-H23 lung) was over 100 µM. The TGI (KM12 colon) was over 100 µM, the TGI (SNB-75 CNS) was over 100 µM and the TGI (SF-295 CNS) was over 100 µM. It also gave a TGI (A549 NSCLC) of over 100 µM, a TGI (HCC-2998 colon) of over 100 µM and a TGI (MDA-MB-435) of over 100 µM. The TGI (MCF7 breast) was over 100 µM, the TGI (PC-3 prostate) was over 100 µM and the TGI (SK-OV-3 ovarian) was over 100 µM. It also gave a TGI (EKVX NSCLC) of over 100 µM, a TGI (OVCAR-4 ovarian) of over 100 µM and a TGI (786-0 renal) of over 100 µM. The TGI (T-47D breast) was over 100 µM, the TGI (MALME-3M melanoma) was over 100 µM and the TGI (NCI/ADR-RES ovarian) was over 100 µM. The TGI (CAKI-1 renal) was over 100 µM and the TGI (UACC-62 melanoma) was over 100 µM.
In the case of `Cc1cc2c(O)c(c1)CN(Cc1ccccc1)Cc1cc(C)cc(c1O)CN(Cc1ccccc1)Cc1cc(C)cc(c1O)CN(Cc1ccccc1)C2`, the TGI (OVCAR-8 ovarian) is reported as over 100 µM, the TGI (MDA-N) is reported as over 100 µM and the TGI (OVCAR-5 ovarian) is reported as over 100 µM. It also gave a TGI (NCI-H460 lung) of over 100 µM, a TGI (RPMI-8226 leukemia) of over 100 µM and a TGI (HCT-116 colon) of over 100 µM. It also gave a TGI (HS 578T breast) of over 100 µM, a TGI (HCT-15 colon) of over 100 µM and a TGI (SN12C renal) of over 100 µM. For the same molecule, the TGI (SF-268 CNS) was over 100 µM, the TGI (HT29 colon) was over 100 µM and the TGI (MDA-MB-231 breast) was over 100 µM. It also gave a TGI (CCRF-CEM leukemia) of over 100 µM, a TGI (NCI-H226 lung) of over 100 µM and a TGI (NCI-H522 lung) of over 100 µM. The TGI (UACC-257 melanoma) was over 100 µM, the TGI (SK-MEL-5 melanoma) was over 100 µM and the TGI (SK-MEL-28 melanoma) was over 100 µM. The TGI (BT-549 breast) was over 100 µM, the TGI (RXF 393 renal) was over 100 µM and the TGI (K-562 leukemia) was over 100 µM. The TGI (U251 CNS) was over 100 µM, the TGI (SK-MEL-2 melanoma) was 95.2 µM and the TGI (MOLT-4 leukemia) was over 100 µM. It also gave a TGI (ACHN renal) of over 100 µM, a TGI (SF-539 CNS) of over 100 µM and a TGI (OVCAR-3 ovarian) of over 100 µM. It also gave a TGI (SW-620 colon) of over 100 µM, a TGI (TK-10 renal) of over 100 µM and a TGI (SNB-19 CNS) of over 100 µM. The TGI (HOP-62 NSCLC) was over 100 µM, the TGI (HL-60(TB) leukemia) was over 100 µM and the TGI (COLO 205 colon) was over 100 µM. For the same molecule, the TGI (M14 melanoma) was over 100 µM, the TGI (UO-31 renal) was over 100 µM and the TGI (DU-145 prostate) was over 100 µM. For the same molecule, the TGI (IGROV1 ovarian) was over 100 µM, the TGI (NCI-H23 lung) was over 100 µM and the TGI (KM12 colon) was over 100 µM. It also gave a TGI (SNB-75 CNS) of over 100 µM, a TGI (SF-295 CNS) of over 100 µM and a TGI (A549 NSCLC) of over 100 µM. For the same molecule, the TGI (HCC-2998 colon) was over 100 µM, the TGI (MDA-MB-435) was over 100 µM and the TGI (MCF7 breast) was over 100 µM. It also gave a TGI (PC-3 prostate) of over 100 µM, a TGI (SK-OV-3 ovarian) of over 100 µM and a TGI (A498 renal) of over 100 µM. It also gave a TGI (OVCAR-4 ovarian) of over 100 µM, a TGI (786-0 renal) of over 100 µM and a TGI (T-47D breast) of over 100 µM. It also gave a TGI (MALME-3M melanoma) of over 100 µM, a TGI (NCI/ADR-RES ovarian) of over 100 µM and a TGI (LOX IMVI melanoma) of over 100 µM. It also gave a TGI (CAKI-1 renal) of over 100 µM and a TGI (UACC-62 melanoma) of over 100 µM.

— PubChem BioAssay (NCI)
